According to the supplement of paper PMC10307832:

Key:
Assay in all cases: relative viability (nuclei count vs DMSO), 5 days (fraction); higher = more cells survive
NCI-H520 = system: NCI-H520
Procedure, shortened: (§1)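 Nuclei were stained with Hoechst during a one-step fixation (final 0.05% Triton X-100, 1% formaldehyde, 1 ug/ml Hoechst) carried out 5 days after dosing, then counted on 4× images. The cells, lung cancer lines in 1536-well plates, had been dosed by pin tool the day after seeding with one drug alone or a fixed anchor-drug dose plus five library-drug doses (not always all listed) in √10 steps. Relative viability is the nuclei count in treated wells divided by that in vehicle wells, and each value is the median of duplicate plates.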

ChaGo-K-1 = system: ChaGo-K-1
Procedure, shortened: as §1

NCI-H23 = system: NCI-H23
Procedure, shortened: as §1

NCI-H1563 = system: NCI-H1563
Procedure, shortened: as §1

EKVX = system: EKVX
Procedure, shortened: as §1

COR-L 105 = system: COR-L 105
Procedure, shortened: as §1

NCI-H441 = system: NCI-H441
Procedure, shortened: as §1

NCI-H1666 = system: NCI-H1666
Procedure, shortened: as §1

PC-3 [JPC-3] = system: PC-3 [JPC-3]
Procedure, shortened: as §1

NCI-H1734 = system: NCI-H1734
Procedure, shortened: as §1

A-427 = system: A-427
Procedure, shortened: as §1

SK-MES-1 = system: SK-MES-1
Procedure, shortened: as §1

LOU-NH91 = system: LOU-NH91
Procedure, shortened: as §1

EMC-BAC-2 = system: EMC-BAC-2
Procedure, shortened: as §1

H3255 = system: H3255
Procedure, shortened: as §1

NCI-H1755 = system: NCI-H1755
Procedure, shortened: as §1

LK-2 = system: LK-2
Procedure, shortened: as §1

HCC-366 = system: HCC-366
Procedure, shortened: as §1

NCI-H596 = system: NCI-H596
Procedure, shortened: as §1

SW 900 = system: SW 900
Procedure, shortened: as §1

NCI-H2170 = system: NCI-H2170
Procedure, shortened: as §1

NCI-H1975 = system: NCI-H1975
Procedure, shortened: as §1

SMILES: COc1cc2nccc(Oc3ccc(NC(=O)Nc4cc(C)on4)c(Cl)c3)c2cc1OC [Tivozanib] + N=C(N)NC(=N)NCCc1ccccc1 [Phenformin] (partner 250 µM)
- relative viability (NCI-H520; first compound 0.005 µM): 0.57
- relative viability (NCI-H520; first compound 0.01581 µM): 0.539
- relative viability (NCI-H520; first compound 0.05 µM): 0.631
- relative viability (NCI-H520; first compound 0.1581 µM): 0.311
- relative viability (NCI-H520; first compound 0.5 µM): 0.348
- relative viability (ChaGo-K-1; first compound 0.005 µM): 0.474
- relative viability (ChaGo-K-1; first compound 0.01581 µM): 0.488
- relative viability (ChaGo-K-1; first compound 0.05 µM): 0.492
- relative viability (ChaGo-K-1; first compound 0.1581 µM): 0.507
- relative viability (ChaGo-K-1; first compound 0.5 µM): 0.433
- relative viability (NCI-H23; first compound 0.005 µM): 0.727
- relative viability (NCI-H23; first compound 0.01581 µM): 0.824
- relative viability (NCI-H23; first compound 0.05 µM): 0.783
- relative viability (NCI-H23; first compound 0.1581 µM): 0.752
- relative viability (NCI-H23; first compound 0.5 µM): 0.809
- relative viability (NCI-H1563; first compound 0.005 µM): 0.602
- relative viability (NCI-H1563; first compound 0.01581 µM): 0.634
- relative viability (NCI-H1563; first compound 0.05 µM): 0.696
- relative viability (NCI-H1563; first compound 0.1581 µM): 0.735
- relative viability (NCI-H1563; first compound 0.5 µM): 0.666
- relative viability (EKVX; first compound 0.005 µM): 0.214
- relative viability (EKVX; first compound 0.01581 µM): 0.228
- relative viability (EKVX; first compound 0.05 µM): 0.232
- relative viability (EKVX; first compound 0.1581 µM): 0.243
- relative viability (EKVX; first compound 0.5 µM): 0.236
- relative viability (COR-L 105; first compound 0.005 µM): 0.49
- relative viability (COR-L 105; first compound 0.01581 µM): 0.482
- relative viability (COR-L 105; first compound 0.05 µM): 0.558
- relative viability (COR-L 105; first compound 0.1581 µM): 0.501
- relative viability (COR-L 105; first compound 0.5 µM): 0.43
- relative viability (NCI-H441; first compound 0.005 µM): 0.797
- relative viability (NCI-H441; first compound 0.01581 µM): 0.782
- relative viability (NCI-H441; first compound 0.05 µM): 0.823
- relative viability (NCI-H441; first compound 0.1581 µM): 0.881
- relative viability (NCI-H441; first compound 0.5 µM): 0.735
- relative viability (NCI-H1666; first compound 0.005 µM): 0.507
- relative viability (NCI-H1666; first compound 0.01581 µM): 0.553
- relative viability (NCI-H1666; first compound 0.05 µM): 0.579
- relative viability (NCI-H1666; first compound 0.1581 µM): 0.569
- relative viability (NCI-H1666; first compound 0.5 µM): 0.582
- relative viability (PC-3 [JPC-3]; first compound 0.005 µM): 0.477
- relative viability (PC-3 [JPC-3]; first compound 0.01581 µM): 0.468
- relative viability (PC-3 [JPC-3]; first compound 0.05 µM): 0.516
- relative viability (PC-3 [JPC-3]; first compound 0.1581 µM): 0.427
- relative viability (PC-3 [JPC-3]; first compound 0.5 µM): 0.481
- relative viability (NCI-H1734; first compound 0.005 µM): 0.343
- relative viability (NCI-H1734; first compound 0.01581 µM): 0.365
- relative viability (NCI-H1734; first compound 0.05 µM): 0.371
- relative viability (NCI-H1734; first compound 0.1581 µM): 0.362
- relative viability (NCI-H1734; first compound 0.5 µM): 0.383
- relative viability (A-427; first compound 0.005 µM): 0.337
- relative viability (A-427; first compound 0.01581 µM): 0.308
- relative viability (A-427; first compound 0.05 µM): 0.363
- relative viability (A-427; first compound 0.1581 µM): 0.315
- relative viability (A-427; first compound 0.5 µM): 0.241
- relative viability (SK-MES-1; first compound 0.005 µM): 0.622
- relative viability (SK-MES-1; first compound 0.01581 µM): 0.676
- relative viability (SK-MES-1; first compound 0.05 µM): 0.71
- relative viability (SK-MES-1; first compound 0.1581 µM): 0.688
- relative viability (SK-MES-1; first compound 0.5 µM): 0.602
- relative viability (LOU-NH91; first compound 0.005 µM): 0.65
- relative viability (LOU-NH91; first compound 0.01581 µM): 0.667
- relative viability (LOU-NH91; first compound 0.05 µM): 0.748
- relative viability (LOU-NH91; first compound 0.1581 µM): 0.654
- relative viability (LOU-NH91; first compound 0.5 µM): 0.676
- relative viability (EMC-BAC-2; first compound 0.005 µM): 0.48
- relative viability (EMC-BAC-2; first compound 0.01581 µM): 0.519
- relative viability (EMC-BAC-2; first compound 0.05 µM): 0.51
- relative viability (EMC-BAC-2; first compound 0.1581 µM): 0.428
- relative viability (EMC-BAC-2; first compound 0.5 µM): 0.441
- relative viability (H3255; first compound 0.005 µM): 0.332
- relative viability (H3255; first compound 0.01581 µM): 0.333
- relative viability (H3255; first compound 0.05 µM): 0.354
- relative viability (H3255; first compound 0.1581 µM): 0.339
- relative viability (H3255; first compound 0.5 µM): 0.351
- relative viability (NCI-H1755; first compound 0.005 µM): 0.585
- relative viability (NCI-H1755; first compound 0.01581 µM): 0.605
- relative viability (NCI-H1755; first compound 0.05 µM): 0.631
- relative viability (NCI-H1755; first compound 0.1581 µM): 0.644
- relative viability (NCI-H1755; first compound 0.5 µM): 0.459
- relative viability (LK-2; first compound 0.005 µM): 0.459
- relative viability (LK-2; first compound 0.01581 µM): 0.457
- relative viability (LK-2; first compound 0.05 µM): 0.512
- relative viability (LK-2; first compound 0.1581 µM): 0.283
- relative viability (LK-2; first compound 0.5 µM): 0.199
- relative viability (HCC-366; first compound 0.005 µM): 0.615
- relative viability (HCC-366; first compound 0.01581 µM): 0.588
- relative viability (HCC-366; first compound 0.05 µM): 0.632
- relative viability (HCC-366; first compound 0.1581 µM): 0.643
- relative viability (HCC-366; first compound 0.5 µM): 0.611
- relative viability (NCI-H596; first compound 0.005 µM): 0.744
- relative viability (NCI-H596; first compound 0.01581 µM): 0.699
- relative viability (NCI-H596; first compound 0.05 µM): 0.777
- relative viability (NCI-H596; first compound 0.5 µM): 0.798
- relative viability (SW 900; first compound 0.005 µM): 0.554
- relative viability (SW 900; first compound 0.01581 µM): 0.71
- relative viability (SW 900; first compound 0.05 µM): 0.731
- relative viability (SW 900; first compound 0.1581 µM): 0.492
- relative viability (SW 900; first compound 0.5 µM): 0.524
- relative viability (NCI-H2170; first compound 0.005 µM): 0.413
- relative viability (NCI-H2170; first compound 0.01581 µM): 0.42
- relative viability (NCI-H2170; first compound 0.05 µM): 0.395
- relative viability (NCI-H2170; first compound 0.1581 µM): 0.424
- relative viability (NCI-H2170; first compound 0.5 µM): 0.421
- relative viability (NCI-H1975; first compound 0.005 µM): 0.398
- relative viability (NCI-H1975; first compound 0.01581 µM): 0.429
- relative viability (NCI-H1975; first compound 0.05 µM): 0.397
- relative viability (NCI-H1975; first compound 0.1581 µM): 0.423
- relative viability (NCI-H1975; first compound 0.5 µM): 0.395
